According to PMC8172861, “Structural and phylogenetic analyses of resistance to next-generation aminoglycosides conferred by AAC(2′) enzymes” (Scientific Reports, 2021):

Biological target: T1, AAC(2′)-Ia (Providencia stuartii, UniProt Q52424)
T1 construct: AAC(2′)-Ia, N-terminal HIS-tag removed by thrombin
Experiment: crystal structure ([…] Å) and competitive inhibition assay
Format: biochemical

T1 sequence (Q52424 whole entry): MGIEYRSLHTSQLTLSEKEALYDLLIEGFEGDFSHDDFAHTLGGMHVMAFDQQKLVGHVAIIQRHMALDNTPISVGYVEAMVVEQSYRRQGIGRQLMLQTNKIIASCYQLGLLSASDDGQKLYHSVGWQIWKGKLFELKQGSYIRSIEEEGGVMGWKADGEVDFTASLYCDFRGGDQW

## NCC[C@H](O)C(=O)N[C@@H]1C[C@H](N)[C@@H](O[C@H]2O[C@H](CN)[C@@H](O)[C@H](O)[C@H]2O)[C@H](O)[C@H]1O[C@H]1O[C@H](CO)[C@@H](O)[C@H](N)[C@H]1O [amikacin]
  Ki: 87 ± 10 µM
